Data published in patent US20180201694A1, “CHITIN DERIVATIVES, METHOD FOR PRODUCTION AND USES THEREOF” (JAWAHARLAL NEHRU CENTRE FOR ADVANCED SCIENTIFIC RESEARCH …, priority 2013, published 2018).

Assays:
Assay type in all cases: cell-based
S. aureus [1] = assay: In-vitro antibacterial activity (MIC/MBC), coated 96-well plate; conditions: 10^5 CFU/mL, 37° C., 24 h, composite as (1c+AgPTS)
Method: (§1) Chitin derivatives were first dissolved in methanol (50 mg/mL) and the solutions were serially diluted. 20 μL of the solutions of different concentrations were added into wells of a 96-well plate. The solution was first air-dried and finally dried in vacuum oven to make a film onto the flat-bottom surface of wells of 96-well plate. Each concentration was applied in triplicate for all the samples to study the antibacterial activity. In order to make films on surfaces such as microscopic glass slide, methanolic solutions of polymer (350 μL) were spin coated onto the glass surface by using a spin coater. […] To prepare thin films, mixed solutions (350 μL) obtained from the solutions of these medically relevant polymers in chloroform and methanolic solution of the chitin derivatives (CHCl3: MeOH=9:1) were spin coated onto the glass surface and dried in air. For the biodegradation study, thin films of the chitin derivatives were prepared on microscopic cover glass.
(§2) To determine the antibacterial activity of the synthesized polymers, 200 μL of 10^5 CFU/mL of bacteria were added to the wells of 96-well plate coated with the chitin derivatives with different amounts. […] The data was then subjected to sigmoidal fitting.

E. coli = assay: as above; conditions: 10^5 CFU/mL, 37° C., 24 h, composite as (1c+AgPTS)
Method: as §1, §2

S. aureus [2] = assay: Antibacterial kinetics; conditions: coated at 6×MIC; followed upto 360 min
Method: A quantity of 200 μL of a solution containing approximately 4.9×10^5 CFU/mL of S. aureus in nutrient broth and 5.1×10^5 CFU/mL in Luria-Bertani (LB) broth were added, and the plates were kept in an incubated shaker at 37° C. The initial time of addition of the bacteria to the wells was taken as zero, and 10 μL aliquots were withdrawn from each of the wells at set time intervals. These aliquots were added immediately to 90 μL of 0.9% saline. These solutions were further diluted by a factor of 10, and 20 μL of all the dilutions was plated on nutrient or LB agar plates immediately. The plates were incubated at 37° C. for 24 h; and bacterial colonies were counted. A plot of CFU (Log10 CFU/mL) versus time was then plotted.
Antibacterial kinetics assay was performed similarly as mentioned earlier.

SMILES: Cc1ccc(S(=O)(=O)[O-])cc1.[Ag+] [AgPTS, silver para-toluene sulfonate]
- MIC (S. aureus [1]): 39 µg/mL
- MIC (E. coli): 10 µg/mL
- Time at which S. aureus was killed (S. aureus [2]): bacteriostatic
